Results published in US20180250224A1, “Ophthalmic Drug Compositions” (Oxular Limited, priority 2014, published 2018).

Experiment: Drug elution in PBS over 0-7 days (HPLC of supernatant)
Assay type: physicochemical
Conditions: 1.2 ml PBS, 37 degrees centigrade, 250 rpm
Method: The microspheres of Example 7 and the elongated solid composition of Example 8 were tested for drug release. Samples of the Everolimus containing microspheres, averaging 4.0 mg, were placed in Eppendorf tubes with 1.2 ml of phosphate buffered saline (PBS) and suspended with agitation. Samples of the elongated solid composition containing Everolimus of 12 mm length, averaging 0.51 mg were placed in Eppendorf tubes with 1.2 ml of phosphate buffered saline (PBS) and suspended with agitation. For comparison, samples of the drug used to produce the microspheres, averaging 4.1 mg, were also placed in Eppendorf tubes with 1.2 ml of PBS and suspended with agitation. The tubes were incubated at 37 degrees centigrade with mixing at 250 rpm. At time intervals of 0, 1, 2, 4 and 7 days a tube containing sample was centrifuged and the supernatant removed for drug analysis. For each time point, 10 microliters of supernatant was placed into 75:25 acetonitrile and water solvent to solubilize the drug and the resultant drug content was analyzed by HPLC. The HPLC method used a C18 reverse phase column and UV detection and was calibrated to a standard curve of drug. […] In contrast, the Everolimus containing microspheres released drug at a slower rate, with 0.06% of the drug released at 7 days. Similar to the microspheres, the elongated solid composition containing Everolimus released drug at a slow rate, with 0.04% of the drug released at 7 days.
The microspheres of Example 11 and the elongated solid composition of Example 12 were tested for drug release. […] For each time point, 10 microliters of supernatant was placed into 75:25 acetonitrile and water solvent to solubilize the drug and the resultant drug content was analyzed by HPLC. […]
The elongated solid composition of Example 15 was tested for drug release. […] For each time point, 10 microliters of supernatant was placed into 50:50 acetonitrile and methanol solvent to solubilize the drug and the resultant drug content was analyzed by HPLC. […]

Row | SMILES | drug released initially at 0 days (initial burst release) (0 days) | drug released, average at subsequent time points (1, 2, 4 and 7 days) | drug released at 7 days (7 days)
1 | CC1(C)O[C@@H]2C[C@H]3[C@@H]4C[C@H](F)C5=CC(=O)C=C[C@]5(C)[C@@]4(F)[C@@H](O)C[C@]3(C)[C@]2(C(=O)CO)O1 [fluocinolone, fluocinolone acetonide] | 5.3% | 0.9% | 
2 | CO[C@H]1C[C@@H]2CC[C@@H](C)[C@@](O)(O2)C(=O)C(=O)N2CCCC[C@H]2C(=O)O[C@H]([C@H](C)C[C@@H]2CC[C@@H](OCCO)[C@H](OC)C2)CC(=O)[C@H](C)/C=C(\C)[C@@H](O)[C@@H](OC)C(=O)[C@H](C)C[C@H](C)/C=C/C=C/C=C/1C [Everolimus] |  |  | 0.45%
